# Measured values from ChEMBL document CHEMBL1155486, “From 6-aminoquinolone antibacterials to 6-amino-7-thiopyranopyridinylquinolone ethyl esters as inhibitors of Staphylococcus aureus multidrug efflux pumps” (2010).
# What was measured:
# Staphylococcus aureus [1] = experiment: Antibacterial activity against Staphylococcus aureus SA-K1902 bearing norA- deficient mutation by microdilution technique; type: functional
# Staphylococcus aureus [2] = experiment: Antibacterial activity against methicillin and ciprofloxacin-resistant Staphylococcus aureus 25A by microdilution technique; type: functional
# Escherichia coli = experiment: Antibacterial activity against Escherichia coli ATCC 25922 by microdilution technique; type: functional
# Staphylococcus aureus [3] = experiment: Antibacterial activity against Staphylococcus aureus ATCC 25923 by microdilution technique; type: functional
# Staphylococcus aureus [4] = experiment: Antibacterial activity against Staphylococcus aureus SA-K1904 bearing norA++ efficient mutation by microdilution technique; type: functional
# Staphylococcus aureus [5] = experiment: Antibacterial activity against wild-type norA expressing Staphylococcus aureus SA-1199 by microdilution technique; type: functional
# Staphylococcus aureus [6] = experiment: Antibacterial activity against Staphylococcus aureus SA-1199B norA++ and A116E GrlA mutation by microdilution technique; type: functional
# Staphylococcus aureus [7] = experiment: Antibacterial activity against Staphylococcus aureus K1035 bearing wild-type GyrA and S80F mutant GrlA by microdilution technique; type: functional
# Staphylococcus aureus [8] = experiment: Antibacterial activity against Staphylococcus aureus K1134 bearing wild-type GyrA and S80Y mutant GrlA by microdilution technique; type: functional
# Staphylococcus aureus [9] = experiment: Antibacterial activity against Staphylococcus aureus K1305 bearing wild-type GyrA and E84K mutant GrlA by microdilution technique; type: functional
# Staphylococcus aureus [10] = experiment: Antibacterial activity against Staphylococcus aureus K1628 bearing S84L mutant GyrA and S80F mutant GrlA by microdilution technique; type: functional
# Staphylococcus aureus [11] = experiment: Antibacterial activity against Staphylococcus aureus K1640 bearing S84L mutant GyrA and S80Y mutant GrlA by microdilution technique; type: functional
# Staphylococcus aureus [12] = experiment: Antibacterial activity against Staphylococcus aureus SA-1199B by EtBr efflux assay; type: functional
# [13] = biological target: T1, Quinolone resistance protein NorA (Staphylococcus aureus) (UniProt P0A0J7); experiment: Inhibition of NorA in Staphylococcus aureus SA-1199B assessed as reduction in ethidium bromide efflux at 50 uM by fluorimetry; design: scale not given: the % may be the effect or the level left
# T1 sequence (whole entry): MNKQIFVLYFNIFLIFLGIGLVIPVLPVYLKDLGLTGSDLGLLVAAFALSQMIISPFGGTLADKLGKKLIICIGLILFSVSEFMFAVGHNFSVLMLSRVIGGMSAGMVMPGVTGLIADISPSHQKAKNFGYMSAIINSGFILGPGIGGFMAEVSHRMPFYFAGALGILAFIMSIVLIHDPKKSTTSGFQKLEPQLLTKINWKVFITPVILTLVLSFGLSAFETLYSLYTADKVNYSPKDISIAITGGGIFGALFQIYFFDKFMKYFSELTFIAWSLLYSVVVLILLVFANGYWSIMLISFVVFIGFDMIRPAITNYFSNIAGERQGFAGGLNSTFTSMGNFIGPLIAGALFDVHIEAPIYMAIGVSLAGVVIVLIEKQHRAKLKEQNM
MIC (Staphylococcus aureus [12]),Activity [13],SMILES,MIC (Staphylococcus aureus [1]),MIC (Staphylococcus aureus [2]),MIC (Escherichia coli),MIC (Staphylococcus aureus [3]),MIC (Staphylococcus aureus [4]),MIC (Staphylococcus aureus [5]),MIC (Staphylococcus aureus [6]),MIC (Staphylococcus aureus [7]),MIC (Staphylococcus aureus [8]),MIC (Staphylococcus aureus [9]),MIC (Staphylococcus aureus [10]),MIC (Staphylococcus aureus [11])
,,Cc1c(N2CCC3=C(C2)C(=O)C(C)CS3)c(N)cc2c(=O)c(C(=O)O)cn(C3CC3)c12 (stereo not given),0.16 µg/mL,32 µg/mL,64 µg/mL,0.08 µg/mL,0.16 µg/mL,0.16 µg/mL,0.31 µg/mL,1.25 µg/mL,1.25 µg/mL,1.25 µg/mL,> 10 µg/mL,> 10 µg/mL
,,Cc1c(N2CCc3ccccc3C2)c(N)cc2c(=O)c(C(=O)O)cn(C3CC3)c12,≤ 0.02 µg/mL,≤ 0.12 µg/mL,≤ 0.12 µg/mL,≤ 0.12 µg/mL,≤ 0.02 µg/mL,≤ 0.02 µg/mL,≤ 0.02 µg/mL,≤ 0.02 µg/mL,≤ 0.02 µg/mL,≤ 0.02 µg/mL,1.25 µg/mL,0.63 µg/mL
> 100 µg/mL,26.3%,CCOC(=O)c1cn(C2CC2)c2cc(N3CCC4=C(C3)C(O)CCS4)c(N)cc2c1=O (stereo not given),,,,,,,,,,,,
,,Nc1cc2c(=O)c(C(=O)O)cn(C3CC3)c2cc1N1CCC2=C(C1)C(=O)CCS2,3.13 µg/mL,> 128 µg/mL,128 µg/mL,6.25 µg/mL,6.25 µg/mL,1.56 µg/mL,25 µg/mL,,,,,
,,COc1c(N2C[C@@H]3CCCN[C@@H]3C2)c(F)cc2c(=O)c(C(=O)O)cn(C3CC3)c12 [MOXIFLOXACIN],0.08 µg/mL,2 µg/mL,< 0.08 µg/mL,< 0.08 µg/mL,0.08 µg/mL,0.08 µg/mL,0.25 µg/mL,0.31 µg/mL,0.31 µg/mL,0.31 µg/mL,5 µg/mL,2.5 µg/mL
,,O=C(O)c1cn(C2CC2)c2cc(N3CCC4=C(C3)/C(=N/O)CCS4)c(F)cc2c1=O,0.63 µg/mL,2 µg/mL,1 µg/mL,2 µg/mL,0.63 µg/mL,0.63 µg/mL,2.5 µg/mL,,,,,
,,CO/N=C1/C2=C(CCN(c3c(N)cc4c(=O)c(C(=O)O)cn(C5CC5)c4c3C)C2)SCC1C (stereo not given),6.25 µg/mL,8 µg/mL,8 µg/mL,16 µg/mL,6.25 µg/mL,3.13 µg/mL,3.13 µg/mL,,,,,
,,CC1CSC2=C(CN(c3cc4c(cc3F)c(=O)c(C(=O)O)cn4C3CC3)CC2)/C1=N/O (stereo not given),0.16 µg/mL,4 µg/mL,32 µg/mL,0.31 µg/mL,0.31 µg/mL,0.16 µg/mL,0.31 µg/mL,1.25 µg/mL,1.25 µg/mL,1.25 µg/mL,> 10 µg/mL,> 10 µg/mL
> 100 µg/mL,63.5%,CCOC(=O)c1cn(C2CC2)c2cc(N3CCC4=C(C3)C(=O)C(C)CS4)c(N)cc2c1=O (stereo not given),,,,,,,,,,,,
,84.8%,COC(=O)[C@H]1[C@H]2C[C@@H]3c4[nH]c5cc(OC)ccc5c4CCN3C[C@H]2C[C@@H](OC(=O)c2cc(OC)c(OC)c(OC)c2)[C@@H]1OC,,,,,,,,,,,,
,,Cc1c(N2CCC3=C(C2)/C(=N/O)C(C)CS3)c(N)cc2c(=O)c(C(=O)O)cn(C3CC3)c12 (stereo not given),0.31 µg/mL,8 µg/mL,0.5 µg/mL,0.16 µg/mL,0.31 µg/mL,0.31 µg/mL,1.25 µg/mL,,,,,
,,O=C1CCSC2=C1CN(c1cc3c(cc1F)c(=O)c(C(=O)O)cn3C1CC1)CC2,0.31 µg/mL,> 128 µg/mL,8 µg/mL,0.08 µg/mL,0.63 µg/mL,1.56 µg/mL,3.13 µg/mL,,,,,
,,CO/N=C1\CCSC2=C1CN(c1cc3c(cc1F)c(=O)c(C(=O)O)cn3C1CC1)CC2,1.25 µg/mL,1 µg/mL,32 µg/mL,0.25 µg/mL,1.25 µg/mL,1.25 µg/mL,2.5 µg/mL,,,,,
,,CC1CSC2=C(CN(c3cc4c(cc3F)c(=O)c(C(=O)O)cn4C3CC3)CC2)C1=O (stereo not given),0.16 µg/mL,32 µg/mL,8 µg/mL,0.31 µg/mL,0.16 µg/mL,0.08 µg/mL,0.16 µg/mL,1.25 µg/mL,1.25 µg/mL,1.25 µg/mL,> 10 µg/mL,> 10 µg/mL
,,Cc1c(N2CCC3=C(C2)/C(=N/O)CCS3)c(N)cc2c(=O)c(C(=O)O)cn(C3CC3)c12,0.63 µg/mL,,0.5 µg/mL,0.31 µg/mL,0.63 µg/mL,0.63 µg/mL,2.5 µg/mL,,,,,
> 100 µg/mL,36.8%,CCOC(=O)c1cn(C2CC2)c2c(C)c(N3CCC4=C(C3)C(=O)CCS4)c(N)cc2c1=O,,,,,,,,,,,,
